The values that follow come from ChEMBL document CHEMBL1156547, “10-Hydroxy-7,8-dihydropyrazino[1',2':1,5]pyrrolo[2,3-d]pyridazine-1,9(2H,6H)-diones: potent, orally bioavailable HIV-1 integrase strand-transfer inhibitors with activity against integrase mutants” (Bioorg Med Chem Lett, 2008).

Data set [1] relates to Human immunodeficiency virus 1. Kind of data set: Ratio of IC50 for HIV1 3B with integrase T66I/S153Y mutation to IC50 for wild type HIV1 3B by single-cycle viral replication assay in presence of 10% FBS. Format: functional.
In data set [2] the test system is Human immunodeficiency virus 1. In words: Antiviral activity against wild type HIV1 3B in human P4/R5 cells assessed as beta-galactosidase activity by single-cycle viral replication assay in presence of 10% FBS. It counts as functional, organism-based. The settings on record: Human immunodeficiency virus 1, 3B.
Data set [3] relates to Human immunodeficiency virus 1. In words: Ratio of IC50 for HIV1 3B with integrase F121Y mutation to IC50 for wild type HIV1 3B by single-cycle viral replication assay in presence of 10% FBS. It counts as functional.
Data set [4] can be described thus: Clearance in Sprague-Dawley rat at 2 mg/kg, iv. Format: ADME, organism-based. Details: dose 2 mg/kg, route intravenous. The settings on record: in vivo.
Data set [5] has as its system Human immunodeficiency virus 1. In words: Antiviral activity against HIV1 3B in human MT4 cells assessed as reduction in p24 antigen levels after 72 hrs by multi-cycle viral replication assay in presence of 10% FBS. Format: functional.
A short description of data set [6]: Volume of distribution in Sprague-Dawley rat at 2 mg/kg, iv. It counts as ADME, organism-based. The settings on record: in vivo. Details: dose 2 mg/kg, route intravenous.
A short description of data set [7]: Oral bioavailability in Sprague-Dawley rat at 10 mg/kg. Format: ADME, organism-based. The settings on record: in vivo.
The test system of data set [8] is Human immunodeficiency virus 1. Kind of data set: Ratio of IC50 for HIV1 3B with integrase N155S mutation to IC50 for wild type HIV1 3B by single-cycle viral replication assay in presence of 10% FBS. It counts as functional.
Data set [9] deals with Human immunodeficiency virus 1. In words: Antiviral activity against HIV1 3B in human MT4 cells assessed as reduction in p24 antigen levels after 72 hrs by multi-cycle viral replication assay in presence of 50% normal human serum. Format: functional.
A short description of data set [10]: Plasma half life in Sprague-Dawley rat at 2 mg/kg, iv. Format: ADME, organism-based. Also noted: dose 2 mg/kg, route intravenous.
Data set [11] in a line: Oral bioavailability in Beagle dog. It counts as ADME, organism-based, Canis lupus familiaris. The note with it: in vivo.
Data set [12] addresses Human immunodeficiency virus type 1 integrase (Human immunodeficiency virus 1, UniProt Q7ZJM1). In words: Inhibition of HIV1 integrase strand transfer activity.
Data set [13] has as its system Canis familiaris. Kind of data set: Half life in iv dosed Beagle dog. The settings on record: in vivo. It counts as ADME, organism-based, Canis lupus familiaris.
Data set [14] is described as follows: Clearance in Beagle dog. It counts as ADME, organism-based, Canis lupus familiaris. The note with it: in vivo.
Data set [15] deals with Human immunodeficiency virus 1. In words: Antiviral activity against HIV1 with integrase Q148K mutation relative to wild type HIV1. It counts as functional.

Chain of Human immunodeficiency virus type 1 integrase (Q7ZJM1 whole entry): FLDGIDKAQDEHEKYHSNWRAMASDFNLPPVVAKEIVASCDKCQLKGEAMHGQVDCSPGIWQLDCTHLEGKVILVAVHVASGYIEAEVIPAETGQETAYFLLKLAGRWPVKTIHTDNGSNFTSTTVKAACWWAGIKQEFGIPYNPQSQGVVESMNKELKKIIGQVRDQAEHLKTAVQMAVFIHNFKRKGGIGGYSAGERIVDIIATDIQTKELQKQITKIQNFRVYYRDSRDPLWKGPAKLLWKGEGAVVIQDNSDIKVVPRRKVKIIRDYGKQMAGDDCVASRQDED

The term IC50 denotes the concentration at which inhibition is half-maximal. The term clearance denotes the rate of elimination divided by the concentration. A high value points to efficient removal. The term Vd denotes the apparent volume that relates the amount in the body to the concentration in plasma or blood. A high value points to wide distribution into tissue. One may read the bioavailability as dose-corrected exposure relative to a reference, in per cent. Lower therefore signals little systemic uptake. As usually defined, the IC95 is the point of the concentration-response curve where the effect stands at 95%. One may read the half-life as how long it takes for the measured level to halve. A higher half-life goes with slow loss. On to `CC(C)N1C[C@H](C)n2c(c(O)c3c(=O)n(Cc4ccc(F)c(Cl)c4)ncc32)C1=O`, for which the “Ratio IC50” value is 1 in data set [1], 1 in data set [3] and 3 in data set [8]. Moreover, the IC50 in data set [2] amounted to 28 nM. The compound further came in with a clearance in data set [4] of 0.17 mL/min/kg. In addition, the “Antiviral activity (p24 reduction)” value in data set [5] amounted to 30 nM. The Vd in [6] came to 0.2 L/kg. The same compound returned a bioavailability in data set [7] of 14%. For the same compound, the IC95 in data set [9] amounted to 220 nM. The same compound had a half-life in [10] of 13 h.
Turning to `Cc1nn(Cc2ccc(F)cc2)c(=O)c2c(O)c3n(c12)[C@@H](C)CN(C(C)C)C3=O`, the “Ratio IC50” value is 1 in data set [1], 1 in data set [3] and 2 in [8]. The IC50 in [2] was 10 nM; in data set [12] it was at most 10 nM. In addition, the clearance was 3 mL/min/kg in [4] and 10 mL/min/kg in data set [14]. In data set [5], the “Antiviral activity (p24 reduction)” value is 16 nM. This compound also gave a Vd in data set [6] of 0.3 L/kg. The values for the bioavailability in data set [11] and in [7] were below 5% and 17%, respectively. Moreover, the T1/2 in [13] turned out to be 1 h. In data set [9], the IC95 is recorded as 35 nM. The “fold change (FC)” value in [15] is 3. Further, in data set [10], the half-life is 5.3 h.
On to `CCN1C[C@H](C)n2c(c(O)c3c(=O)n(Cc4ccc(F)cc4)ncc32)C1=O`, for which the “Ratio IC50” value turned out to be 1 in data set [1], 5 in data set [3] and 27 in data set [8]. Also, the IC50 in data set [2] turned out to be 16 nM. In data set [4], the clearance amounted to 0.5 mL/min/kg. The “Antiviral activity (p24 reduction)” value in [5] is 24 nM. In addition, the distribution volume (Vd) in data set [6] came to 0.2 L/kg. The same compound returned a bioavailability in data set [7] of 31%. Further, in [9], the IC95 was determined as 46 nM. The half-life in data set [10] is 6 h.
Take `CCN1C[C@@H](C)n2c(c(O)c3c(=O)n(Cc4ccc(F)cc4)ncc32)C1=O`: the “Ratio IC50” value in data set [1] came out at 9; in data set [3] it was 8; in [8], 10. For the same compound, in data set [2], the 50% inhibitory concentration (IC50) was found to be 52 nM. Moreover, the “Antiviral activity (p24 reduction)” value in data set [5] was determined as 250 nM. Moreover, in data set [9], the IC95 is listed as 500 nM.
With `CCN1C[C@H](C)n2c(c(O)c3c(=O)n(Cc4ccc(F)cc4)nc(C)c32)C1=O`, the “Ratio IC50” value in data set [1] is 1; in data set [3], 1; in data set [8], 6. Moreover, the IC50 in data set [2] came to 14 nM. Further, the clearance in [4] was 17 mL/min/kg. Moreover, the “Antiviral activity (p24 reduction)” value in data set [5] is reported as 17 nM. This compound came in with a Vd in [6] of 2.6 L/kg. In [7], the bioavailability was 7%. In [9], the IC95 is 40 nM. Further, the half-life in data set [10] is 6.2 h.
As for `CN1CCn2c(c(O)c3c(=O)n(Cc4ccc(F)cc4)ncc32)C1=O`, the results for the “Ratio IC50” value in data set [1], in [3] and in [8] were 7, 11 and 53, respectively. The IC50 in data set [2] came out at 72 nM. The “Antiviral activity (p24 reduction)” value in [5] stood at 120 nM. Moreover, the IC95 in [9] worked out at 380 nM.
Turning to `Cc1nn(Cc2ccc(F)cc2)c(=O)c2c(O)c3n(c12)CCN(C)C3=O`, the entries for the “Ratio IC50” value in [1], in data set [3] and in [8] were 8, 10 and 48, respectively. Moreover, in data set [2], the IC50 was 21 nM. Moreover, the “Antiviral activity (p24 reduction)” value in data set [5] is listed as 43 nM. The IC95 in data set [9] worked out at 130 nM.
`CC(C)N1C[C@H](C)n2c(c(O)c3c(=O)n(Cc4ccc(F)cc4)ncc32)C1=O`: the “Ratio IC50” value in [1] worked out at 1; in data set [3], 2; in data set [8], 6. In addition, the IC50 in [2] was 19 nM; in data set [12] it was at most 10 nM. The clearance was 0.17 mL/min/kg in data set [4] and 10 mL/min/kg in [14]. The “Antiviral activity (p24 reduction)” value in data set [5] came to 13 nM. For the same compound, in data set [6], the Vd is 0.2 L/kg. For the same compound, the bioavailability is below 5% in data set [11] and 21% in [7]. The T1/2 in data set [13] came to 1 h. Also, the IC95 in data set [9] is reported as 26 nM. For the same compound, the “fold change (FC)” value in data set [15] was 45. In data set [10], this compound showed a half-life of 12 h.
With `Cc1nn(Cc2ccc(F)cc2)c(=O)c2c(O)c3n(c12)[C@H](C)CN(C)C3=O`, the “Ratio IC50” value in [1] worked out at 8; in data set [3] it was 9; in data set [8], 91. Besides, the concentration for half-maximal inhibition (IC50) in data set [2] came out at 66 nM. In addition, the “Antiviral activity (p24 reduction)” value in data set [5] was 250 nM. In data set [9], the IC95 came to 1000 nM.
As for `CCN1C[C@H](C)n2c(c(O)c3c(=O)n(Cc4ccc(F)c(Cl)c4)ncc32)C1=O`, the figures for the “Ratio IC50” value in data set [1], in data set [3] and in [8] were 1, 2 and 7, respectively. In data set [2], the 50% inhibitory concentration (IC50) is 19 nM. Also, in data set [4], the clearance is 0.27 mL/min/kg. The “Antiviral activity (p24 reduction)” value in data set [5] is recorded as 31 nM. This compound showed a Vd in [6] of 0.3 L/kg. The same compound came in with a bioavailability in data set [7] of 13%. Besides, the IC95 in data set [9] is reported as 160 nM. The compound further gave a half-life in data set [10] of 9.5 h.
On to `CCN1CC(C)(C)n2c(c(O)c3c(=O)n(Cc4ccc(F)cc4)ncc32)C1=O`, for which the “Ratio IC50” value in data set [1] is listed as 3; in data set [3], 10; in [8], 27. Besides, the IC50 in data set [2] was determined as 19 nM. In [4], the clearance worked out at 0.68 mL/min/kg. The “Antiviral activity (p24 reduction)” value in data set [5] is recorded as 10 nM. In data set [6], this compound showed a Vd of 0.3 L/kg. In addition, the bioavailability in data set [7] is 13%. Moreover, in data set [9], the IC95 is 30 nM. Also, the half-life in data set [10] was 5.2 h.
Take `Cc1nn(Cc2ccc(F)cc2)c(=O)c2c(O)c3n(c12)[C@@H](C)CN(C)C3=O`: the “Ratio IC50” value in [1] was 2; in data set [3] it was 4; in [8], 20. Moreover, the IC50 in data set [2] came out at 10 nM. For the same compound, the “Antiviral activity (p24 reduction)” value in [5] is listed as 10 nM. For the same compound, the IC95 in [9] came out at 31 nM.
